Source: US10618918B2, “Substituted boronic acids as antimicrobials” (priority 2015, dated 2020)
Where two headings read alike, the source gives them in different places.

Columns and labels:
[1] = system: KP1010 SHV-12; experiment: Aztreonam potentiation (MPC@4), strain KP1010 SHV-12
[2] = system: ec308 SHV-5; experiment: Aztreonam potentiation (MPC@4), strain ec308 SHV-5; settings: for AZT MPC4 SHV-5 ec308: minimum BLI concentration inhibiting growth with aztreonam 4 μg/mL, tested up to 40 μg/mL
[3] = system: ec302 TEM-10; experiment: Aztreonam potentiation (MPC@4), strain ec302 TEM-10; settings: for AZT MPC4 TEM-10 ec302: minimum BLI concentration inhibiting growth with aztreonam 4 μg/mL, tested up to 40 μg/mL
[4] = system: KP1005 CTX-M-14; experiment: Aztreonam potentiation (MPC@4), strain KP1005 CTX-M-14
[5] = system: EC1010 CMY-6; experiment: Aztreonam potentiation (MPC@4), strain EC1010 CMY-6
[6] = system: KP1004 KPC-2; experiment: Aztreonam potentiation (MPC@4), strain KP1004 KPC-2
[7] = system: KP1009 CTX-M-15; experiment: Aztreonam potentiation (MPC@4), strain KP1009 CTX-M-15; settings: for AZT MPC4 CTX-M-15 KP1009: minimum BLI concentration inhibiting growth with aztreonam 4 μg/mL, tested up to 40 μg/mL
[8] = system: PAM1154/KPC-2; experiment: Biapenem potentiation MPC64 in PAM1154/KPC-2 (efflux deficient, lacks MexAB-OprM); format: cell-based, Pseudomonas aeruginosa
Description: (§1) Efflux of BLIs from Pseudomonas aeruginosa by the MexAB-OprM efflux pump was also evaluated. The plasmid expressing the gene encoding KPC-2 was introduced into two strains of P. aeruginosa, PAM1032 and PAM 1154 that overexpressed or lacked MexAB-OprM, respectively. […] Potency of BLIs to potentiate biapenem in these strains was determined.

[9] = system: KP1004 KPC-2; experiment: Biapenem potentiation (MPC@1), strain KP1004 KPC-2; format: cell-based; settings: minimum BLI concentration inhibiting growth with biapenem 1 μg/mL; tested up to 40 μg/mL
Description: (§2) Biapenem was present in the test medium at 1 μg/mL. […] Table 3 summarizes the BLI potency of biapenem potentiation (MPC@1) for two strains overexpressing class A (KPC) and class D (OXA-48) carbapenemases. Biapenem MIC for each strain is also shown.

[10] = system: ECL1002; experiment: Aztreonam potentiation (MPC@4), strain ECL1002; settings: minimum BLI concentration inhibiting growth with aztreonam 4 μg/mL; tested up to 40 μg/mL
[11] = system: KP1005 CTX-M-14; experiment: Tigemonam potentiation (MPC@4), strain KP1005 CTX-M-14
[12] = system: PAM1032/KPC-2; experiment: Biapenem potentiation MPC64 in PAM1032/KPC-2 (efflux proficient, overexpresses MexAB-OprM); format: cell-based, Pseudomonas aeruginosa
Description: as §1

[13] = system: AB1053 OXA-72; experiment: Meropenem potentiation (MPC@8), strain AB1053 OXA-72; format: cell-based, Acinetobacter baumannii; settings: minimum BLI concentration inhibiting growth with meropenem 8 μg/mL; tested up to 20 μg/mL
[14] = system: AB1054 OXA-23; experiment: Meropenem potentiation (MPC@8), strain AB1054 OXA-23; format: cell-based, Acinetobacter baumannii
[15] = system: KP1086 OXA-48; experiment: Biapenem potentiation (MPC@1), strain KP1086 OXA-48; format: cell-based; settings: minimum BLI concentration inhibiting growth with biapenem 1 μg/mL; tested up to 40 μg/mL
Description: as §2

[16] = molecular target: T1, purified class A, C and D enzymes (β-lactamases) (UniProt P0AD64, L31Q/G234S/E235K, species not given); experiment: biochemical; format: biochemical
T1 construct: Ki (SHV-12, NCF), uM; other: purified SHV-12; nitrocefin (NCF) as reporter substrate
T1 sequence (P0AD64 1-286 L31Q/G234S/E235K): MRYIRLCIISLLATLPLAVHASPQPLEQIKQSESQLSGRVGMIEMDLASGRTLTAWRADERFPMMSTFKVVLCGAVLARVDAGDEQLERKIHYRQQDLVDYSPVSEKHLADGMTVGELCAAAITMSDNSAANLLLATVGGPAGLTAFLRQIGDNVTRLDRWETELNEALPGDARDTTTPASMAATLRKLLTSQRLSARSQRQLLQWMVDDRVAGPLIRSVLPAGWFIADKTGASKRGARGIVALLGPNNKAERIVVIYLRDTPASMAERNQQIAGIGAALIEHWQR

[17] = biochemical; format: biochemical
[18] = molecular target: purified class A, C and D enzymes (β-lactamases) (Klebsiella pneumoniae, UniProt Q6XEC0); experiment: biochemical; format: biochemical
[19] = molecular target: T2, purified class A, C and D enzymes (β-lactamases) (Pseudomonas aeruginosa, UniProt P24735); experiment: biochemical; format: biochemical
T2 construct: rows headed: Ki (Pa-AmpC, NCF), uM; other: purified Pa-AmpC; nitrocefin (NCF) as reporter substrate

[20] = molecular target: purified class A, C and D enzymes (β-lactamases) (Enterobacter cloacae, UniProt P05364); experiment: biochemical; format: biochemical
[21] = molecular target: purified class A, C and D enzymes (β-lactamases) (Klebsiella pneumoniae, UniProt Q9F663); experiment: biochemical; format: biochemical
[22] = molecular target: purified class A, C and D enzymes (β-lactamases) (Escherichia coli, UniProt Q9L5C7); experiment: biochemical; format: biochemical
[23] = system: EC1010 CMY-6; experiment: Tigemonam potentiation (MPC@4), strain EC1010 CMY-6; format: cell-based
[24] = system: KP1010 SHV-12; experiment: Tigemonam potentiation (MPC@4), strain KP1010 SHV-12
[25] = system: KP1009 CTX-M-15; experiment: Tigemonam potentiation (MPC@4), strain KP1009 CTX-M-15
[26] = system: ECL1002; experiment: Tigemonam potentiation (MPC@4), strain ECL1002; format: cell-based
[27] = system: ec308 SHV-5; experiment: Tigemonam potentiation (MPC@4), strain ec308 SHV-5; format: cell-based
[28] = system: ec302 TEM-10; experiment: Tigemonam potentiation (MPC@4), strain ec302 TEM-10; format: cell-based
[29] = molecular target: purified class A, C and D enzymes (β-lactamases) (UniProt P62593, R162S/E237K, species not given); experiment: biochemical; format: biochemical; settings: purified TEM-10; nitrocefin (NCF) as reporter substrate
[30] = molecular target: T3, purified class A, C and D enzymes (β-lactamases) (Acinetobacter baumannii, UniProt Q9L4P2); experiment: biochemical; format: biochemical; settings: purified OXA-23; nitrocefin (NCF) as reporter substrate
T3 construct: rows headed: Ki (OXA-23, NCF), uM; other: purified OXA-23; nitrocefin (NCF) as reporter substrate

[31] = minimum BLI concentration inhibiting growth with aztreonam 4 μg/mL, tested up to 40 μg/mL
[32] = minimum BLI concentration inhibiting growth with tigemonam 4 μg/mL, tested up to 40 μg/mL

Chain of purified class A, C and D enzymes (β-lactamases) (Escherichia coli, UniProt Q9L5C7) (Q9L5C7 entry or part of it): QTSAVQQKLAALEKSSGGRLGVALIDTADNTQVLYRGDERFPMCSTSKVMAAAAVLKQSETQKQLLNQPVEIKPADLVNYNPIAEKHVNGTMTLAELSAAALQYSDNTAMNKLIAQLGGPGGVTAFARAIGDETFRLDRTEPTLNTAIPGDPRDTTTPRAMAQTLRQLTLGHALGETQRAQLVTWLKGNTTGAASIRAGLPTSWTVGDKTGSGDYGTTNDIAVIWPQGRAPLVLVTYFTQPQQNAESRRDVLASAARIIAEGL
T3 sequence (Q9L4P2 whole entry): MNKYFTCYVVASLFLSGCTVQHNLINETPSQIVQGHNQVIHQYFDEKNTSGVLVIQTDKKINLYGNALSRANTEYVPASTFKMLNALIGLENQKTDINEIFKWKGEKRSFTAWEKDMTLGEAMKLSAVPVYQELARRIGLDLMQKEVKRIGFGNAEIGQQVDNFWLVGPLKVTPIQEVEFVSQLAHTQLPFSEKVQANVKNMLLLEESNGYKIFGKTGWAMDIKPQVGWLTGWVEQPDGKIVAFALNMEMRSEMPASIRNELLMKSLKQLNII
T2 sequence (P24735 whole entry): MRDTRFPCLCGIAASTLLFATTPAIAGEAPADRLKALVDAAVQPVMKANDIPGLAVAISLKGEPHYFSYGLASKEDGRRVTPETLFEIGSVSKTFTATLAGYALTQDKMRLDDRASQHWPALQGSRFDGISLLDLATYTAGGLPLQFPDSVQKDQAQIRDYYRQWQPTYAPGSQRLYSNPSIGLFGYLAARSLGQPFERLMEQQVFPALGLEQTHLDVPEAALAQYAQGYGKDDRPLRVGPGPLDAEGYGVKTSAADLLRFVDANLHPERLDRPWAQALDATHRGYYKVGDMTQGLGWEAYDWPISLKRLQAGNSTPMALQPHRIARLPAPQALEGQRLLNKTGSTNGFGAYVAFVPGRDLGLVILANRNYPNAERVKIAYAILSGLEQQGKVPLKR
Chain of purified class A, C and D enzymes (β-lactamases) (Enterobacter cloacae, UniProt P05364) (P05364 21-381): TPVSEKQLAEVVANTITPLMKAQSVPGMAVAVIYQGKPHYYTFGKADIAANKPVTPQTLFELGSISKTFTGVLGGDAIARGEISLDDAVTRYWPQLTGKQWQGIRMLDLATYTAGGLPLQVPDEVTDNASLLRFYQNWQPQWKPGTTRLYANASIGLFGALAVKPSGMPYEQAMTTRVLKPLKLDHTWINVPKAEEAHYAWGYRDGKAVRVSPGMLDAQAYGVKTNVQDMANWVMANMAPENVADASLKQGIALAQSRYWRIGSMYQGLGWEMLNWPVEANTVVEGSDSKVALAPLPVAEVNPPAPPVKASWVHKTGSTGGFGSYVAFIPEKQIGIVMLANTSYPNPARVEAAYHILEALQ

C[C@H]1[C@H](NC(=O)/C(=N\OC(C)(C)C(=O)O)c2csc(N)n2)C(=O)N1S(=O)(=O)O [Aztreonam, reference compound]
MIC ([1]; read-out: Aztreonam MIC): 64 mg/L | MIC ([2]; read-out: Aztreonam MIC): > 128 mg/L | MIC ([3]; read-out: Aztreonam MIC): 128 mg/L | MIC ([4]; read-out: Aztreonam MIC): > 128 mg/L | MIC ([5]; read-out: Aztreonam MIC): > 128 mg/L | MIC ([6]; read-out: Aztreonam MIC): > 128 mg/L | MIC ([7]; read-out: Aztreonam MIC): > 128 mg/L

COc1ccc2c(c1C(=O)[O-])O[B-](O)(O)CC2.[Na+].[Na+] [Compound 7, DISODIUM; 4,4-DIHYDROXY-8-METHOXY-5-OXA-4-BORANUIDABICYCLO[4.4.0]DECA-1(6),7,9-TRIENE-7-CARBOXYLATE]
AZT MPC4 SHV-12 KP1010 [1]: X (key: X = MPC@4 ≤ 5 μg/mL; Y = 5 μg/mL < MPC@4 ≤ 20 μg/mL; Z = MPC@4 > 20 μg/mL) | AZT MPC4 SHV-5 ec308 [2]: X (X = MPC@4 ≤ 5 μg/mL) | PAM1154/KPC-2 Biapenem MPC64 [8]: 0.6 | BPM MPC1 KP1004 KPC-2 [9]: X (X = MPC@1 ≤ 5 μg/mL) | AZT MPC4 TEM-10 ec302 [3]: X (X = MPC@4 ≤ 5 μg/mL) | AZT MPC4 ECL1002 [10]: X (X = MPC@4 ≤ 5 μg/mL) | AZT MPC4 CMY-6 EC1010 [5]: X (key: X = MPC@4 ≤ 5 μg/mL; Y = 5 μg/mL < MPC@4 ≤ 20 μg/mL; Z = MPC@4 > 20 μg/mL) | TIG MPC4 CTX-M-14 KP1005 [11]: X (key: X = MPC@4 ≤ 5 μg/mL; Y = 5 μg/mL < MPC@4 ≤ 20 μg/mL; Z = MPC@4 > 20 μg/mL) | PAM1032/KPC-2 Biapenem MPC64 [12]: 2.5 | MPM MPC8 AB1053 OXA-72 [13]: X (X = MPC@1 ≤ 5 μg/mL) | AZT MPC4 KPC-2 KP1004 [6]: X (key: X = MPC@4 ≤ 5 μg/mL; Y = 5 μg/mL < MPC@4 ≤ 20 μg/mL; Z = MPC@4 > 20 μg/mL) | MPM MPC8 AB1054 OXA-23 [14]: X (key: X = MPC@1 ≤ 5 μg/mL; Y = 5 μg/mL < MPC@1 ≤ 20 μg/mL; Z = MPC@1 > 20 μg/mL) | AZT MPC4 CTX-M-15 KP1009 [7]: X (X = MPC@4 ≤ 5 μg/mL) | BPM MPC1 OXA-48 KP1086 [15]: X (X = MPC@1 ≤ 5 μg/mL) | Ki ([16]; read-out: Ki (SHV-12, NCF); purified SHV-12; nitrocefin (NCF) as reporter substrate): < 0.1 µM | Ki [17]: < 0.1 µM | Ki (OXA-48, NCF), uM [18]: X (key: X = Ki ≤ 0.1 μM; Y = 0.1 μM < Ki ≤ 1 μM; Z = Ki > 1 μM) | Ki [19]: < 0.1 µM | Ki (P99, NCF), uM [20]: X (key: X = Ki ≤ 0.1 μM; Y = 0.1 μM < Ki ≤ 1 μM; Z = Ki > 1 μM) | Ki (KPC-2, NCF), uM [21]: X (key: X = Ki ≤ 0.1 μM; Y = 0.1 μM < Ki ≤ 1 μM; Z = Ki > 1 μM) | Ki (CTX-M-14, NCF), uM [22]: X (key: X = Ki ≤ 0.1 μM; Y = 0.1 μM < Ki ≤ 1 μM; Z = Ki > 1 μM)

CC1(C)[C@H](NC(=O)/C(=N\OCC(=O)O)c2csc(N)n2)C(=O)N1OS(=O)(=O)O [Tigemonam, reference compound]
Tigemonam MIC ([23]; strain EC1010 CMY-6, tigemonam alone): 16 mg/L | Tigemonam MIC ([24]; strain KP1010 SHV-12, tigemonam alone): >64 mg/L | Tigemonam MIC [25]: >64 mg/L | Tigemonam MIC ([26]; strain ECL1002, tigemonam alone): 32 mg/L | Tigemonam MIC [11]: >64 mg/L | Tigemonam MIC ([27]; strain ec308 SHV-5, tigemonam alone): >64 mg/L | Tigemonam MIC ([28]; strain ec302 TEM-10, tigemonam alone): >64 mg/L

Disodium; 4,4-dihydroxy-8-(1H-triazol-4-ylmethoxy)-5-oxa-4-boranuidabicyclo[4.4.0]deca-1(6),7,9-triene-7-carboxylate [Compound 24]
AZT MPC4 SHV-12 KP1010 [1, 31]: X (X = MPC@4 ≤ 5 μg/mL) | TIG MPC4 CMY-6 EC1010 [23, 32]: X (X = MPC@4 ≤ 5 μg/mL) | AZT MPC4 SHV-5 ec308 [2]: X (X = MPC@4 ≤ 5 μg/mL) | TIG MPC4 SHV-12 KP1010 [24, 32]: X (X = MPC@4 ≤ 5 μg/mL) | BPM MPC1 KP1004 KPC-2 [9]: X (X = MPC@1 ≤ 5 μg/mL) | AZT MPC4 TEM-10 ec302 [3]: X (X = MPC@4 ≤ 5 μg/mL) | AZT MPC4 ECL1002 [10]: X (X = MPC@4 ≤ 5 μg/mL) | TIG MPC4 CTX-M-15 KP1009 [25, 32]: X (X = MPC@4 ≤ 5 μg/mL) | AZT MPC4 CTX-M-14 KP1005 [4, 31]: X (X = MPC@4 ≤ 5 μg/mL) | TIG MPC4 ECL1002 [26, 32]: X (X = MPC@4 ≤ 5 μg/mL) | AZT MPC4 CMY-6 EC1010 [5, 31]: X (X = MPC@4 ≤ 5 μg/mL) | TIG MPC4 CTX-M-14 KP1005 [11, 32]: Z (Z = MPC@4 > 20 μg/mL) | MPM MPC8 AB1053 OXA-72 [13]: X (X = MPC@1 ≤ 5 μg/mL) | AZT MPC4 KPC-2 KP1004 [6, 31]: X (X = MPC@4 ≤ 5 μg/mL) | TIG MPC4 SHV-5 ec308 [27, 32]: X (X = MPC@4 ≤ 5 μg/mL) | TIG MPC4 TEM-10 ec302 [28, 32]: X (X = MPC@4 ≤ 5 μg/mL) | MPM MPC8 AB1054 OXA-23 ([14]; minimum BLI concentration inhibiting growth with meropenem 8 μg/mL, tested up to 20 μg/mL): X (X = MPC@1 ≤ 5 μg/mL) | AZT MPC4 CTX-M-15 KP1009 [7]: X (X = MPC@4 ≤ 5 μg/mL) | BPM MPC1 OXA-48 KP1086 [15]: X (X = MPC@1 ≤ 5 μg/mL) | Ki ([16]; purified SHV-12; nitrocefin (NCF) as reporter substrate; read-out: Ki (SHV-12, NCF)): < 0.1 µM | Ki [29]: < 0.1 µM | Ki ([18]; purified OXA-48, nitrocefin (NCF) as reporter substrate): < 0.1 µM | Ki [30]: < 0.1 µM | Ki ([21]; purified KPC-2, nitrocefin (NCF) as reporter substrate): < 0.1 µM | Ki ([22]; purified CTX-M-14, nitrocefin (NCF) as reporter substrate): < 0.1 µM
